In one series the test system is detached potato leaves. Conditions: detached potato leaves treated with peptide plus water, no inoculum; 9 = clean leaves.
Series [1] concerns Phytophthora infestans zoospores.
For series [2], the system named is Phytophthora infestans. Type of series: in vivo.
For series [3], the system named is Phytophthora infestans. Type of series: in vivo. The source holds these as a separate data set.

Ends that are not written are not given here.

Consider RNTAQIP [Peptide V2, RNTAQIP], for which, in the series on detached potato leaves, the “score (1-9 scale), negative control without Phytophthora infestans inoculation” value is 8.67.

Regarding RITAQIRL [Peptide V1], in series [1] (FIG. 9 legend), the “activity in the presence of other agrochemical active ingredients” value was “retains its activity”. In addition, the “zoospore germination, peptide expressed in E. coli” value in series [1] (Peptide V1 expressed in E. coli) is recorded as “completely inhibited zoospore germination”. The “additive or synergistic effects with chemical fungicides” value in series [1] (Peptide V1 with either Mancozeb or Fungonil (Chlorothalonil), germination assays) is listed as “did not indicate any evidence of additive or synergistic effects”. Besides, the “protection against infection (in words), experiment repeated one week later” value in the series on Phytophthora infestans [2] (400 uM, detached potato leaves) is recorded as “almost as good at reducing infection”. Besides, the “average score (1-9 scale of late blight infection)” value in the series with Phytophthora infestans [2] (6 days after Phytophthora infection, 50 sporangia/ul final, 4 drops of 10 ul per leaflet, 20 C, peptides 400 uM final, Mancozeb product diluted 1:1000, 9 = no symptoms, water positive control 6.56) was determined as 8.37. Besides, the “late blight lesions, peptide expressed in E. coli” value in the series on Phytophthora infestans [2] (detached leaf assay, Peptide V1 expressed in E. coli) was “it allowed the development of minor late blight lesions, it is noteworthy that these lesions did not progress”. In addition, in the series with Phytophthora infestans [2] (detached potato leaves), the “protection (in words), further repeat, first time” value is “some protection” and the “protection (in words), further repeat, second time” value was “excellent protection”. The “overall conclusion on efficacy” value with Phytophthora infestans [2] (over all detached leaf experiments) is given as “consistently works well”. In addition, the “protection among concentrations tested with and without LI-700” value with Phytophthora infestans [3] (large plants, 400 μM peptide) is “best protection”. The “severity of symptoms compared with non-treated control group, combination” value with Phytophthora infestans [3] (plant assays, low dose Peptide V1 (25 μM) combined with low dose of Mancozeb) is “approximately the same”. In addition, in the series with Phytophthora infestans [3] (plant assays, low dose alone (Peptide V1 25 μM; low dose of Mancozeb)), the “severity of symptoms compared with non-treated control group” value is “approximately the same”. Moreover, in the series on Phytophthora infestans [3] (whole plant assays, 400 μM peptide concentration), the disease reduction result is recorded as “approximately 60%”.
